In brackets after ≈: the same amount, converted by molar mass. Where two headings read alike, the source gives them in different places.
How the values were obtained:
Type in all cases: cell-based
Citrobacter koseri = experiment: MIC, CLSI broth microdilution, clinical isolates; settings: Citrobacter koseri (N = 100)
Klebsiella oxytoca = experiment: MIC, CLSI broth microdilution, clinical isolates; settings: Klebsiella oxytoca (N = 50)
Morganella morganii = experiment: MIC, CLSI broth microdilution, clinical isolates; settings: Morganella morganii (N = 51)
Staphylococcus aureus = experiment: MIC, CLSI broth microdilution, clinical isolates; settings: for MIC50 / MIC90: Staphylococcus aureus
[1] = system: Staphylococcus epidermidis; experiment: MIC, CLSI broth microdilution, clinical isolates; settings: for MIC50: Staphylococcus epidermidis
[2] = system: Staphylococcus lugdunensis; experiment: MIC, CLSI broth microdilution, clinical isolates; settings: Staphylococcus lugdunensis (N = 15)
[3] = system: Staphylococcus saprophyticus; experiment: MIC, CLSI broth microdilution, clinical isolates; settings: Staphylococcus saprophyticus (N = 101)
[4] = system: Staphylococcus haemolyticus; experiment: MIC, CLSI broth microdilution, clinical isolates; settings: Staphylococcus haemolyticus (N = 101)
Staphylococcus warneri = experiment: MIC, CLSI broth microdilution, clinical isolates; settings: Staphylococcus warneri (N = 50)
Staphylococcus hominis = experiment: MIC, CLSI broth microdilution, clinical isolates; settings: Staphylococcus hominis (N = 50)
Streptococcus agalactiae = experiment: MIC, CLSI broth microdilution, clinical isolates; settings: Streptococcus agalactiae (N = 100)
Streptococcus pneumoniae = experiment: MIC, CLSI broth microdilution, clinical isolates
Streptococcus pyogenes = experiment: MIC, CLSI broth microdilution, clinical isolates; settings: Streptococcus pyogenes (N = 101)
[5] = system: Lancefield group C, F, G streptococci; experiment: MIC, CLSI broth microdilution, clinical isolates; settings: G streptococci (N = 50)
Viridans streptococci = experiment: MIC, CLSI broth microdilution, clinical isolates; settings: Viridans streptococci (N = 156)
Haemophilus influenzae = experiment: MIC, CLSI broth microdilution, clinical isolates; settings: for MIC50 / MIC90: Haemophilus influenzae
Legionella pneumophila = experiment: microbe, parasite or virus in culture
Moraxella catarrhalis = experiment: MIC, CLSI broth microdilution, clinical isolates; settings: Moraxella catarrhalis (N = 101)
[6] = Staphylococcus aureus (CNS, N = 16)
[7] = Staphylococcus aureus (CS, N = 14)
[8] = Staphylococcus aureus (MRSA, N = 11)
[9] = Staphylococcus aureus (MSSA, N = 19)
[10] = Staphylococcus aureus (all phenotypes, N = 30)
[11] = MRSA, Staphylococcus aureus (MRSA, N = 11)
[12] = MSSA, Staphylococcus aureus (MSSA, N = 19)
[13] = Staphylococcus epidermidis (CNS, N = 6)
[14] = Staphylococcus epidermidis (CS, N = 9)
[15] = Staphylococcus epidermidis (MRSE, N = 9)
[16] = Staphylococcus epidermidis (MSSE, N = 6)
[17] = Staphylococcus epidermidis (all phenotypes, N = 15)
[18] = MRSE, Staphylococcus epidermidis (MRSE, N = 9)
[19] = Streptococcus pneumoniae (PISP, N = 2)
[20] = Streptococcus pneumoniae (PRSP, N = 2)
[21] = Streptococcus pneumoniae (PSSP, N = 31)
[22] = Streptococcus pneumoniae (all phenotypes, N = 35)
[23] = Haemophilus influenzae (all phenotypes, N = 40)
[24] = Haemophilus influenzae (bla negative, N = 24)
[25] = Haemophilus influenzae (bla positive, N = 16)

## CC(C)(O/N=C(\C(=O)N[C@@H]1C(=O)N2C(C(=O)[O-])=C(C[n+]3ccccc3)CS[C@H]12)c1csc(N)n1)C(=O)O [Ceftazidime]
Citrobacter koseri
  % S: 100.0%
  MIC50: 0.12 µg/mL (≈ 0.22 µM)
  MIC90: 0.5 µg/mL (≈ 0.915 µM)
  MIC Range: 0.06 to 4 µg/mL
Klebsiella oxytoca
  % S: 100.0%
  MIC50: 0.12 µg/mL (≈ 0.22 µM)
  MIC90: 0.5 µg/mL (≈ 0.915 µM)
  MIC Range: 0.03 to 1 µg/mL
Morganella morganii
  % S: 82.4%
  MIC50: 0.12 µg/mL (≈ 0.22 µM)
  MIC90: 16 µg/mL (≈ 29.3 µM)

## C[C@H]1COc2c(N3CCN(C)CC3)c(F)cc3c(=O)c(C(=O)O)cn1c23 [Levofloxacin]
Staphylococcus aureus; [6]
  % S: 12.5%
  MIC50: 4 µg/mL (≈ 11.1 µM)
  MIC90: > 8 µg/mL
Staphylococcus aureus; [7]
  % S: 92.9%
  MIC Range: 0.06 to 2 µg/mL
  MIC50: 0.12 µg/mL (≈ 0.332 µM)
  MIC90: 0.25 µg/mL (≈ 0.692 µM)
Staphylococcus aureus; [8]
  % S: 18.2%
Staphylococcus aureus; [9]
  % S: 68.4%
Staphylococcus aureus; [10]
  % S: 50.0%
  MIC50: 1 µg/mL (≈ 2.77 µM)
  MIC90: > 8 µg/mL
Staphylococcus aureus; [11]
  MIC50: 4 µg/mL (≈ 11.1 µM)
  MIC90: > 8 µg/mL
Staphylococcus aureus; [12]
  MIC50: 0.25 µg/mL (≈ 0.692 µM)
  MIC90: 4 µg/mL (≈ 11.1 µM)
[1]; [13]
  % S: 0.0%
  MIC50: 8 µg/mL (≈ 22.1 µM)
[1]; [14]
  % S: 100.0%
  MIC Range: 0.12-0.12 μg/mL
  MIC50: 0.12 µg/mL (≈ 0.332 µM)
[1]; [15]
  % S: 44.4%
[1]; [16]
  % S: 83.3%
  MIC Range: 0.12 to 8 µg/mL
  MIC50: 0.12 µg/mL (≈ 0.332 µM)
[1]; [17]
  % S: 60.0%
  MIC90: > 8 µg/mL
  MIC50: 0.12 µg/mL (≈ 0.332 µM)
[1]; [18]
  MIC50: 2 µg/mL (≈ 5.53 µM)
[2]
  % S: 66.7%
  MIC50: 0.25 µg/mL (≈ 0.692 µM)
  MIC90: > 8 µg/mL
[3]
  % S: 100.0%
  MIC50: 0.5 µg/mL (≈ 1.38 µM)
  MIC90: 0.5 µg/mL (≈ 1.38 µM)
  MIC Range: 0.06 to 0.5 µg/mL
[4]
  % S: 39.6%
  MIC50: 4 µg/mL (≈ 11.1 µM)
  MIC90: > 8 µg/mL
Staphylococcus warneri
  % S: 76.0%
  MIC50: 0.12 µg/mL (≈ 0.332 µM)
  MIC90: > 8 µg/mL
Staphylococcus hominis
  % S: 30.0%
  MIC50: 8 µg/mL (≈ 22.1 µM)
  MIC90: > 8 µg/mL
Streptococcus agalactiae
  % S: 98.0%
  MIC Range: 0.25 to 4 µg/mL
Streptococcus agalactiae; read-out: MIC50
  MIC50: 0.5 µg/mL (≈ 1.38 µM)
Streptococcus agalactiae; read-out: MIC90
  MIC90: 1 µg/mL (≈ 2.77 µM)
Streptococcus pneumoniae; [19]
  % S: 100.0%
  MIC Range: 0.5 to 1 µg/mL
Streptococcus pneumoniae; [20]
  % S: 100.0%
  MIC Range: 0.5 to 1 µg/mL
Streptococcus pneumoniae; [21]
  % S: 96.8%
  MIC50: 0.5 µg/mL (≈ 1.38 µM)
  MIC90: 1 µg/mL (≈ 2.77 µM)
  MIC Range: 0.5 to 8 µg/mL
Streptococcus pneumoniae; [22]
  % S: 97.1%
  MIC Range: 0.5 to 8 µg/mL
Streptococcus pneumoniae; Streptococcus pneumoniae (all phenotypes, N = 35), read-out: MIC50
  MIC50: 0.5 µg/mL (≈ 1.38 µM)
Streptococcus pneumoniae; Streptococcus pneumoniae (all phenotypes, N = 35), read-out: MIC90
  MIC90: 1 µg/mL (≈ 2.77 µM)
Streptococcus pyogenes
  % S: 100.0%
  MIC Range: 0.25 to 2 µg/mL
Streptococcus pyogenes; read-out: MIC50
  MIC50: 0.5 µg/mL (≈ 1.38 µM)
Streptococcus pyogenes; read-out: MIC90
  MIC90: 0.5 µg/mL (≈ 1.38 µM)
[5]
  % S: 98.0%
  MIC Range: 0.12 to 8 µg/mL
[5]; read-out: MIC50
  MIC50: 0.5 µg/mL (≈ 1.38 µM)
[5]; read-out: MIC90
  MIC90: 0.5 µg/mL (≈ 1.38 µM)
Viridans streptococci
  % S: 95.5%
Viridans streptococci; read-out: MIC50
  MIC50: 1 µg/mL (≈ 2.77 µM)
Viridans streptococci; read-out: MIC90
  MIC90: 1 µg/mL (≈ 2.77 µM)
Citrobacter koseri
  % S: 99.0%
  MIC50: 0.03 µg/mL (≈ 0.083 µM)
  MIC90: 0.12 µg/mL (≈ 0.332 µM)
Klebsiella oxytoca
  % S: 90.0%
  MIC50: 0.03 µg/mL (≈ 0.083 µM)
  MIC90: 0.5 µg/mL (≈ 1.38 µM)
  MIC Range: 0.015 to 8 µg/mL
Haemophilus influenzae; [23]
  % S: 100.0%
  MIC Range: 0.008 to 0.015 µg/mL
  MIC50: 0.015 µg/mL (≈ 0.0415 µM)
  MIC90: 0.015 µg/mL (≈ 0.0415 µM)
Haemophilus influenzae; [24]
  % S: 100.0%
  MIC Range: 0.008 to 0.015 µg/mL
  MIC50: 0.015 µg/mL (≈ 0.0415 µM)
  MIC90: 0.015 µg/mL (≈ 0.0415 µM)
Haemophilus influenzae; [25]
  % S: 100.0%
  MIC Range: 0.015-0.015 μg/mL
  MIC50: 0.015 µg/mL (≈ 0.0415 µM)
  MIC90: 0.015 µg/mL (≈ 0.0415 µM)
Legionella pneumophila; Legionella pneumophila
  MIC50: 0.03 µg/mL (≈ 0.083 µM)
  MIC90: 0.03 µg/mL (≈ 0.083 µM)
Legionella pneumophila; Legionella pneumophila (N = 50)
  MIC Range: 0.015 to 0.06 µg/mL
Moraxella catarrhalis
  % S: 100.0%
  MIC50: 0.015 µg/mL (≈ 0.0415 µM)
  MIC90: 0.03 µg/mL (≈ 0.083 µM)
  MIC Range: 0.015 to 0.5 µg/mL
Morganella morganii
  % S: 76.5%
  MIC50: 0.06 µg/mL (≈ 0.166 µM)
  MIC90: 8 µg/mL (≈ 22.1 µM)

## Cc1onc(-c2ccccc2)c1C(=O)N[C@@H]1C(=O)N2[C@@H]1SC(C)(C)[C@@H]2C(=O)O [Oxacillin]
Staphylococcus aureus; [6]
  % S: 50.0%
  MIC50: 0.5 µg/mL (≈ 1.25 µM)
  MIC90: > 8 µg/mL
Staphylococcus aureus; [7]
  % S: 78.6%
  MIC50: 0.25 µg/mL (≈ 0.623 µM)
  MIC90: > 8 µg/mL
Staphylococcus aureus; [8]
  % S: 0.0%
Staphylococcus aureus; [9]
  % S: 100.0%
  MIC Range: 0.12 to 0.5 µg/mL
Staphylococcus aureus; [10]
  % S: 63.3%
  MIC50: 0.25 µg/mL (≈ 0.623 µM)
  MIC90: > 8 µg/mL
Staphylococcus aureus; [11]
  MIC50: > 8 µg/mL
  MIC90: > 8 µg/mL
Staphylococcus aureus; [12]
  MIC50: 0.25 µg/mL (≈ 0.623 µM)
  MIC90: 0.5 µg/mL (≈ 1.25 µM)
[1]; [13]
  % S: 50.0%
  MIC Range: 0.12 to 4 µg/mL
  MIC50: 1 µg/mL (≈ 2.49 µM)
[1]; [14]
  % S: 55.6%
  MIC Range: ≦0.06-2 μg/mL
  MIC50: 0.12 µg/mL (≈ 0.299 µM)
[1]; [15]
  % S: 0.0%
  MIC Range: 1 to 4 µg/mL
[1]; [16]
  % S: 100.0%
  MIC Range: ≦0.06-0.12 μg/mL
  MIC50: ≤ 0.06 µg/mL
[1]; [17]
  % S: 40.0%
  MIC90: 2 µg/mL (≈ 4.98 µM)
  MIC Range: ≦0.06-4 μg/mL
  MIC50: 1 µg/mL (≈ 2.49 µM)
[1]; [18]
  MIC50: 1 µg/mL (≈ 2.49 µM)
[2]
  % S: 60.0%
  MIC50: 0.5 µg/mL (≈ 1.25 µM)
  MIC90: > 8 µg/mL
[3]
  % S: 9.9%
  MIC50: 0.5 µg/mL (≈ 1.25 µM)
  MIC90: 1 µg/mL (≈ 2.49 µM)
[4]
  % S: 31.7%
  MIC50: > 8 µg/mL
  MIC90: > 8 µg/mL
Staphylococcus warneri
  % S: 46.0%
  MIC50: 0.5 µg/mL (≈ 1.25 µM)
  MIC90: > 8 µg/mL
Staphylococcus hominis
  % S: 16.0%
  MIC50: > 8 µg/mL
  MIC90: > 8 µg/mL
Moraxella catarrhalis
  MIC50: 4 µg/mL (≈ 9.96 µM)
  MIC90: 8 µg/mL (≈ 19.9 µM)

Source: US8415342B2, “Besifloxacin ophthalmic composition for the treatment or control of infection” (Bausch & Lomb Incorporated, priority 2008, dated 2013)
